molecular target: MYT1 protein (Homo sapiens (Human), UniProt Q99640); assay: Test for binding to ATP binding site of MYT1 (Kinase Tracer 178 / Eu-Anti-GST antibody TR-FRET); conditions: ATP binding site of MYT1, 30 minutes at room temperature
Sequence (Q99640 whole entry): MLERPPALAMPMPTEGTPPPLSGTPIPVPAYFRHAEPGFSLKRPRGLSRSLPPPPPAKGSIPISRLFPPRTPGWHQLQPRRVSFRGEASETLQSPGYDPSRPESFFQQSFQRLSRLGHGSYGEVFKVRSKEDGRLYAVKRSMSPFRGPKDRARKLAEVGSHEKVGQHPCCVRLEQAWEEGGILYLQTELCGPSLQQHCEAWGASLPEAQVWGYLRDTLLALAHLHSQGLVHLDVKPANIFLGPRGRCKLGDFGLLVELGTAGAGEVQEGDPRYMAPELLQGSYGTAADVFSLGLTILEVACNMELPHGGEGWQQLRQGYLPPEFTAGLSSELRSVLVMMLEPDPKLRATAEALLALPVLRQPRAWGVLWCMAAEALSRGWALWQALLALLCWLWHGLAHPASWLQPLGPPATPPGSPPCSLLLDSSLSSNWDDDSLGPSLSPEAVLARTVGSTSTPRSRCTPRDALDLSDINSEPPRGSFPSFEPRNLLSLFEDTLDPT

IC50 [nM]	Structure (SMILES)
99	Cn1cnc2c3[nH]c(=O)c(N)c(-c4ccc(F)c5[nH]ncc45)c3ccc21 [Compound M3, 7-Amino-6-(7-fluoro-1H-indazol-4-yl)-3-methyl-9H-imidazo[4,5-h]quinolin-8-one]
2.7	CS(=O)(=O)Nc1cc2c(-c3ccc(F)c4[nH]ncc34)c(N)c(=O)[nH]c2c2ncccc12 [Compound D16, N-[8-Amino-7-(7-fluoro-1H-indazol-4-yl)-9-oxo-10H-1,10-phenanthroline-5-yl]methanesulfonamide]
4.4	CC(C)Nc1cc2c(-c3ccc(F)c4[nH]ncc34)c(N)c(=O)[nH]c2c2nccnc12 [Compound G9, 8-Amino-7-(7-fluoro-1H-indazol-4-yl)-5-(propan-2-ylamino)-10H-pyrido[2,3-f]quinoxalin-9-one]
4.7	Nc1c(-c2ccc(F)c3[nH]ncc23)c2cc(N3CCC(F)(F)CC3)c3ncccc3c2[nH]c1=O [Compound C126, 3-Amino-6-(4,4-difluoropiperidin-1-yl)-4-(7-fluoro-1H-indazol-4-yl)-1H-1,7-phenanthrolin-2-one]
3.5	Nc1c(-c2ccc(F)c3[nH]ncc23)c2cc(OCCC(F)F)c3ncccc3c2[nH]c1=O [Compound C32, 3-Amino-6-(3,3-difluoropropoxy)-4-(7-fluoro-1H-indazol-4-yl)-1H-1,7-phenanthrolin-2-one]
6.4	CC(C)N1CCC(c2cc3c(-c4ccc(F)c5[nH]ncc45)c(N)c(=O)[nH]c3c3ncccc23)CC1 [Compound D23, 3-Amino-4-(7-fluoro-1H-indazol-4-yl)-6-(1-propan-2-ylpiperidin-4-yl)-1H-1,10-phenanthrolin-2-one]
360	Nc1c(-c2cc(Cl)cc3[nH]ncc23)c2cc(Cl)ccc2[nH]c1=O [Compound A58, 3-Amino-6-chloro-4-(6-chloro-1H-indazol-4-yl)-1H-quinolin-2-one]
19	Nc1c(-c2ccc(F)c3[nH]ncc23)c2cc(OCCOC(F)(F)F)c3ncccc3c2[nH]c1=O [Compound C43, 3-Amino-4-(7-fluoro-1H-indazol-4-yl)-6-[2-(trifluoromethoxy)ethoxy]-1H-1,7-phenanthrolin-2-one]
1400	Nc1c(N2CCCC(CO)C2)c2cc(Br)ccc2[nH]c1=O (stereo not drawn) [Compound A71, 3-Amino-6-bromo-4-[3-(hydroxymethyl)piperidin-1-yl]-1H-quinolin-2-one 2,2,2-trifluoroacetate]
5.5	Cc1ccc2c(n1)c(C1CC1)cc1c(-c3ccc(F)c4[nH]ncc34)c(N)c(=O)[nH]c12 [Compound C182, 3-Amino-6-cyclopropyl-4-(7-fluoro-1H-indazol-4-yl)-8-methyl-1H-1,7-phenanthrolin-2-one]
4.3	C=C(C)c1cc2c(-c3ccc(F)c4[nH]ncc34)c(N)c(=O)[nH]c2c2cccnc12 [Compound C103, 3-Amino-4-(7-fluoro-1H-indazol-4-yl)-6-prop-1-en-2-yl-1H-1,7-phenanthrolin-2-one]
840	O=c1[nH]c2ccccc2c(-c2cccc3[nH]ncc23)c1O [Compound E2, 3-Hydroxy-4-(1H-indazol-4-yl)-1H-quinolin-2-one]
10	Nc1c(-c2ccc(F)c3[nH]ncc23)c2cc(N3CCC(F)(F)C3)c3cccnc3c2[nH]c1=O [Compound D8, 3-Amino-6-(3,3-difluoropyrrolidin-1-yl)-4-(7-fluoro-1H-indazol-4-yl)-1H-1,10-phenanthrolin-2-one]
3.8	Nc1c(-c2cc(F)c(F)c3[nH]ncc23)c2cc(O)c3ncccc3c2[nH]c1=O [Compound C199, 3-Amino-4-(6,7-difluoro-1H-indazol-4-yl)-6-hydroxy-1H-1,7-phenanthrolin-2-one]
7.6	COc1ccc2c(n1)c(OC(C)C)cc1c(-c3ccc(F)c4[nH]ncc34)c(N)c(=O)[nH]c12 [Compound T2, 3-Amino-4-(7-fluoro-1H-indazol-4-yl)-8-methoxy-6-propan-2-yloxy-1H-1,7-phenanthrolin-2-one]
4.6	CCC(C)c1cc2c(-c3ccc(F)c4[nH]ncc34)c(N)c(=O)[nH]c2c2cccnc12 (stereo not drawn) [Compound C109, 3-Amino-6-butan-2-yl-4-(7-fluoro-1H-indazol-4-yl)-1H-1,7-phenanthrolin-2-one]
11	Cc1cc(Cl)cc2c(-c3ccc(Cl)c4[nH]ncc34)c(N)c(=O)[nH]c12 [Compound A26, 3-Amino-6-chloro-4-(7-chloro-1H-indazol-4-yl)-8-methyl-1H-quinolin-2-one]
20	Nc1c(-c2ccc(Cl)c3[nH]ncc23)c2cc(C(=O)N3CCOCC3)ccc2[nH]c1=O [Compound A38, 3-Amino-4-(7-chloro-1H-indazol-4-yl)-6-(morpholine-4-carbonyl)-1H-quinolin-2-one]
2.1	N#CC1(Cc2cc3c(-c4ccc(F)c5[nH]ncc45)c(N)c(=O)[nH]c3c3cccnc23)CC1 [Compound C177, 1-[[3-Amino-4-(7-fluoro-1H-indazol-4-yl)-2-oxo-1H-1,7-phenanthrolin-6-yl]methyl]cyclopropane-1-carbonitrile]
24	Nc1c(-c2ccc(F)c3[nH]ncc23)c2cc(C3CCC(F)(F)CC3)c3ncccc3c2[nH]c1=O [Compound C163, 3-Amino-6-(4,4-difluorocyclohexyl)-4-(7-fluoro-1H-indazol-4-yl)-1H-1,7-phenanthrolin-2-one]

IC50 [nM]	Structure (SMILES)
23	Nc1c(-c2ccc(F)c3[nH]ncc23)c2ccc3c(Cl)cccc3c2[nH]c1=O [Compound B18, 3-Amino-7-chloro-4-(7-fluoro-1H-indazol-4-yl)-1H-benzo[h]quinolin-2-one]
3	Nc1c(-c2ccc(F)c3[nH]ncc23)c2cc(N3CCC3)c3ncccc3c2[nH]c1=O [Compound C121, 3-Amino-6-(azetidin-1-yl)-4-(7-fluoro-1H-indazol-4-yl)-1H-1,7-phenanthrolin-2-one]
1.8	Cc1cc2c(-c3ccc(F)c4[nH]ncc34)c(N)c(=O)[nH]c2c2sccc12 [Compound L2, 7-Amino-6-(7-fluoro-1H-indazol-4-yl)-4-methyl-9H-thieno[3,2-h]quinolin-8-one]
1.4	CC(=O)Nc1cc2c(-c3ccc(F)c4[nH]ncc34)c(N)c(=O)[nH]c2c2nccnc12 [Compound G8, N-[8-amino-7-(7-fluoro-1H-indazol-4-yl)-9-oxo-10H-pyrido[2,3-f]quinoxalin-5-yl]acetamide]
1	Nc1c(-c2ccc(F)c3[nH]ncc23)c2cc(OC3CCCC3)c3ncccc3c2[nH]c1=O [Compound C6, 3-Amino-6-cyclopentyloxy-4-(7-fluoro-1H-indazol-4-yl)-1H-1,7-phenanthrolin-2-one]
250	N#Cc1cc2c(-c3ccc(C#N)c4[nH]ncc34)c(N)c(=O)[nH]c2c2ccccc12 [Compound B42, 3-Amino-4-(7-cyano-1H-indazol-4-yl)-2-oxo-1H-benzo[h]quinoline-6-carbonitrile]
1.1	Nc1c(-c2cc(F)c(F)c3[nH]ncc23)c2cc(OCC3CC3)c3ncccc3c2[nH]c1=O [Compound C70, 3-Amino-6-(cyclopropylmethoxy)-4-(6,7-difluoro-1H-indazol-4-yl)-1H-1,7-phenanthrolin-2-one]
21	CC(C)(C)OC(=O)N1CCC(c2cc3c(-c4ccc(F)c5[nH]ncc45)c(N)c(=O)[nH]c3c3cccnc23)CC1 [Compound C99, tert-Butyl 4-[3-amino-4-(7-fluoro-1H-indazol-4-yl)-2-oxo-1H-1,7-phenanthrolin-6-yl]piperidine-1-carboxylate]
130	Nc1c(-c2c(F)ccc3[nH]ncc23)c2cc(Cl)ccc2[nH]c1=O [Compound A67, 3-Amino-6-chloro-4-(5-fluoro-1H-indazol-4-yl)-1H-quinolin-2-one]
8.5	Nc1c(-c2ccc(Cl)c3[nH]ncc23)c2cc(Cl)c3ncccc3c2[nH]c1=O [Compound C77, 3-Amino-6-chloro-4-(7-chloro-1H-indazol-4-yl)-1H-1,7-phenanthrolin-2-one]
3.6	CO[C@@H](C)COc1cc2c(-c3ccc(F)c4[nH]ncc34)c(N)c(=O)[nH]c2c2cccnc12 [Compound C45, 3-Amino-4-(7-fluoro-1H-indazol-4-yl)-6-[(2S)-2-methoxypropoxy]-1H-1,7-phenanthrolin-2-one]
7.6	CC(=O)c1ccc2[nH]c(=O)c(N)c(-c3ccc(Cl)c4[nH]ncc34)c2c1 [Compound A31, 6-Acetyl-3-amino-4-(7-chloro-1H-indazol-4-yl)-1H-quinolin-2-one]
5	Nc1c(-c2ccc(F)c3[nH]ncc23)c2cc(OC3CC(F)(F)C3)c3ncccc3c2[nH]c1=O [Compound C23, 3-Amino-6-(3,3-difluorocyclobutyl)oxy-4-(7-fluoro-1H-indazol-4-yl)-1H-1,7-phenanthrolin-2-one]
2.7	Nc1c(-c2ccc(F)c3[nH]ncc23)c2cc(O[C@H]3C[C@H](F)C3)c3ncccc3c2[nH]c1=O [Compound C42, 3-Amino-6-((1r,3r)-3-fluorocyclobutyl)oxy-4-(7-fluoro-1H-indazol-4-yl)-1H-1,7-phenanthrolin-2-one]
13	Cc1nccc2c1c(Br)cc1c(-c3ccc(F)c4[nH]ncc34)c(N)c(=O)[nH]c12 [Compound P2, 3-Amino-6-bromo-4-(7-fluoro-1H-indazol-4-yl)-7-methyl-1H-1,8-phenanthrolin-2-one]
15	Nc1c(-c2ccc(F)c3[nH]ncc23)c2ccc3cccnc3c2[nH]c1=O [Compound D4, 3-Amino-4-(7-fluoro-1H-indazol-4-yl)-1H-1,10-phenanthrolin-2-one]
29	CC(C)Oc1cc2c(-c3ccc(Cl)c4[nH]ncc34)c(N)c(=O)[nH]c2cc1F [Compound A1, 3-Amino-4-(7-chloro-1H-indazol-4-yl)-7-fluoro-6-propan-2-yloxy-1H-quinolin-2-one]
22	CC(=O)Nc1cc2c(-c3ccc(F)c4[nH]ncc34)c(N)c(=O)[nH]c2c2ncccc12 [Compound D19, N-[8-amino-7-(7-fluoro-1H-indazol-4-yl)-9-oxo-10H-1,10-phenanthrolin-5-yl]acetamide]
0.25	COc1cc2c(-c3ccc(F)c4[nH]ncc34)c(N)c(=O)[nH]c2c2ncccc12 [Compound D18, 3-Amino-4-(7-fluoro-1H-indazol-4-yl)-6-methoxy-1H-1,10-phenanthrolin-2-one]
